According to patent US20060013804A1, “Modulation of stem cell differentiation by modulation of caspase-3 activity” (Ottawa Health Research Institute, priority 2002, published 2006):

Tests used:
PAK2 = test: Immunoprecipitation/kinase assay of PAK2 from neurospheres; type: cell-based, mouse; conditions: inhibited vs control treated cultures, neurosphere differentiation
MST1 = test: Proteolysis of in vitro translated 35S-methionine labelled MST1 by C2C12 lysates; type: biochemical, human; conditions: 35S-labelled MST1 incubated with lysates of inhibitor-treated C2C12 cells
Procedure: Transfection Assays. The complete open reading frame of the human MST1, [Genbank Accession No. gi|1117790] obtained from a clone bank collection (Stratagene) was inserted into the expression vector pcDNA3.1 Myc/His (Invitrogen). A constitutively active MST1 (MST1-act) was prepared as previously described (Megeney, L. A., et al., (1996) Genes Dev 10, 1173-1183). The integrity of both MST1 and MST1-act were confirmed by sequencing. The kinase activity of these protein products were verified by transient transfection into COS1 cells followed by immunoprecipitation and kinase analysis using Histone-H1 as the target substrate (see below). Transfections with MST1 and MST1-act into both COS1 and primary myoblasts were performed using Lipofectamine Plus (Gibco) as directed in the manufacturer's instructions.
In vitro translation and MST1 proteolysis. MST1-pcDNA3.1 Myc/His was in vitro transcribed and translated using a TnT T7 Coupled Wheat Germ Extract System (Promega). The labelling efficiency was verified by SDS-PAGE, Coomassie-staining and autoradiography. […] The proteolytic cleavage of MST1 was assessed by SDS-PAGE and autoradiography.
One kinase that was altered in activity co-migrated with a predicted pI (5.2) and molecular weight (36 kDa) consistent with Mammalian Sterile Twenty-like kinase (MST1). […]

[1] = test system: primary striatal stem cells (neurospheres); test: Primary striatal neurospheres with or without caspase-3 inhibitor, immunostaining for neural lineage markers; type: cell-based, mouse; conditions: 1 μM inhibitor
Procedure: After sacrificing, the abdomen was sprayed with 70% ethanol. A 2 cm incision is made vertically up the abdomen. The horn was removed with sterile tweezers, and placed in PBS. The horn was cut open the horn to expose one embryo at a time and each embryo was placed in a separate 35 mm tissue culture dish containing 2 ml PBS. Each embryo was pinned to the dish and the cortex peeled off layer by layer to expose the striatum, which was then removed. The striatal tissue was placed in a 50 ml Falcon Tube containing cold Hank's Balanced Salt Solution (HBSS) on ice and the tissue allowed to settle at the bottom of the tube. The HBSS was replaced with 2 ml of Complete Neurocult Proliferation Media and the tissue triturated gently until only a few fragments of tissue remained. The supernatant was then collected and the fragments of tissue were triturated in 1 ml media. The supernatant was again removed and stored with the first supernatant that was collected.
At this point the number of cells can be counted using an aliquot of Trypan Blue (1/5 dilution). Cells were seeded at a density of 1 million cells per 25 ml of Complete Proliferation Media and grown in Complete Neurocult Proliferation Media for 4 days, at which time they were expanded if the plates appeared too confluent. If expansion was not necessary, the cells were allowed to grow for a few more days prior to harvesting. To expand the primary culture, half the cell suspension was placed in a new dish and 12.5 ml of Complete Proliferation Media was added to each of the initial plate and the expanded plate. After a few days, once most of the spheres had lifted off the dish, the sphere suspension was confluent. At this time, cells were either passaged in growth media, frozen, or plated onto a differentiation plate.
Plating and Differentiation of Striatal Stem Cells: In order to differentiate neurospheres, they must be plated onto a surface coated with Laminin and Poly-D-Lysine. The sphere suspension was collected from a 10 cm dish, placed in a 50 ml tube and centrifuged at 500 rpm for 5 min at 4° C. The supernatant was aspirated and discarded, then 2 ml of Complete Neurocult Proliferation Media was added and the sphere pellet gently triturated until the spheres were resuspended. The sphere suspension was then diluted in Complete Neurocult Proliferation Media to obtain the desired concentration (one 10 cm dish of neurospheres is appropriate for approximately 4 coated chamber slides). 2 ml aliquots of sphere suspension were plated per chamber and after a few hours at 37° C., the medium was changed to Complete Neurocult Differentiation media.
Paraformaldehyde (PFA) Fixing of Cells: Freshly made 4% PFA was used. Media was aspirated out of wells and each well was washed with 2 ml PBS for 3 min. […]

Q: `COC(=O)CC[C@H](NC(=O)[C@H](CC(=O)OC)NC(=O)OCc1ccccc1)C(=O)N[C@H](C(=O)N[C@@H](CC(=O)OC)C(=O)CF)C(C)C` [z-DEVD.fmk] was tested. Which PAK2 activity (PAK2) did it give?
A: did not observe differences in PAK2 activity

Q: And the “36 kDa MST1 cleavage fragment” value (MST1)?
A: not apparent

Q: And the “36 kDa MST1 cleavage fragment” value (MST1; listed as caspase-3 inhibitor)?
A: absent in caspase-3 inhibited samples

Q: And the “glial fibrillary acid protein staining (astrocytes)” value ([1]; 48 h differentiation)?
A: showed no staining for astrocytes

Q: What about the “myelin basic protein staining (oligodendricytes)” value ([1]; 48 h differentiation) of the same compound?
A: did not stain positive for oligodendricytes

Q: And the “nestin staining after differentiation” value ([1]; 48 h differentiation)?
A: retain their undifferentiated lineage as demonstrated by the presence of nestin

Q: And the “cell cycling (nestin staining during proliferation)” value ([1]; proliferating striatal stem cells)?
A: does not have an effect on cell cycling
